From PubChem BioAssay AID328 (DTP/NCI, 2004)
Inconclusive results and toxic doses are left out. Rule for the calls: active = survival T/C of 150% or more; inactive = T/C below 125% in these data.

Tested on: BDF1 mice, P388 leukemia ip, median survival T/C
Experiment: NCI In Vivo Anticancer Drug Screen. Data for tumor model P388 Leukemia (intraperitoneal) in B6D2F1 (BDF1) mice
Conditions: endpoint: median survival time, higher = longer survival
Summary of the method: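 T/C = treated-group survival ÷ vehicle-control survival; tumour transplanted into mice before dosing.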

[1] = dose: 25.0 mg/kg/injection, schedule: Q04DX003 (ip), vehicle: Klucel (hydroxypropylcellulose) (HPC)
[2] = dose: 50.0 mg/kg/injection, schedule: Q04DX003 (ip), vehicle: Klucel (hydroxypropylcellulose) (HPC)
[3] = dose: 100.0 mg/kg/injection, schedule: Q01DX009 (ip), vehicle: saline with Tween-80
[4] = dose: 200.0 mg/kg/injection, schedule: Q01DX009 (ip), vehicle: saline with Tween-80
[5] = dose: 50.0 mg/kg/injection, schedule: Q01DX009 (ip), vehicle: saline with Tween-80
[6] = dose: 100.0 mg/kg/injection, schedule: Q04DX003 (ip), vehicle: saline with Tween-80
[7] = dose: 200.0 mg/kg/injection, schedule: Q04DX003 (ip), vehicle: saline with Tween-80
[8] = dose: 400.0 mg/kg/injection, schedule: Q04DX003 (ip), vehicle: saline with Tween-80
[9] = dose: 50.0 mg/kg/injection, schedule: Q04DX003 (ip), vehicle: other
[10] = dose: 100.0 mg/kg/injection, schedule: Q04DX003 (ip), vehicle: other
[11] = dose: 50.0 mg/kg/injection, schedule: Q01DX009 (ip), vehicle: saline
[12] = dose: 100.0 mg/kg/injection, schedule: Q01DX009 (ip), vehicle: saline
[13] = dose: 50.0 mg/kg/injection, schedule: Q04DX003 (ip), vehicle: saline with Tween-80
[14] = dose: 12.5 mg/kg/injection, schedule: Q01DX009 (ip), vehicle: saline

Measured: T/C

Cc1ccc(S(=O)(=O)Oc2cc(C)ccc2C)cc1
inactive: [1] 105 % of control | [2] 95 % of control | [3] 114 % of control | dose: 100.0 mg/kg/injection, schedule: Q04DX003 (ip), vehicle: Klucel (hydroxypropylcellulose) (HPC) 105 % of control | [4] 109 % of control | dose: 400.0 mg/kg/injection, schedule: Q01DX009 (ip), vehicle: saline with Tween-80 114 % of control

CCCCNC(C)(C)C(SSSC(c1cccs1)C(C)(C)NCCCC)c1cccs1 (stereo not drawn)
inactive: dose: 44.0 mg/kg/injection, schedule: Q04DX003 (ip), vehicle: saline with Tween-80 113 % of control | [5] 118 % of control | dose: 66.0 mg/kg/injection, schedule: Q04DX003 (ip), vehicle: saline with Tween-80 100 % of control | [3] 122 % of control | [6] 118 % of control | dose: 150.0 mg/kg/injection, schedule: Q04DX003 (ip), vehicle: saline with Tween-80 109 % of control | [4] 118 % of control | [7] 118 % of control | [8] 122 % of control

COC(=O)CCCc1c[nH]c2ccccc12
inactive: dose: 100.0 mg/kg/injection, schedule: Q01DX009 (ip), vehicle: other 103 % of control | dose: 200.0 mg/kg/injection, schedule: Q01DX009 (ip), vehicle: other 94 % of control | dose: 400.0 mg/kg/injection, schedule: Q01DX009 (ip), vehicle: other 86 % of control

CO[C@H]1C[C@H](O[C@H]2CC[C@]3(C=O)[C@H]4CC[C@]5(C)[C@@H](C6=CC(=O)OC6)CC[C@]5(O)[C@@H]4CC[C@]3(O)C2)O[C@H](C)[C@H]1O[C@@H]1O[C@H](CO)[C@@H](O)[C@H](O)[C@H]1O
inactive: dose: 0.25 mg/kg/injection, schedule: Q01DX009 (ip), vehicle: saline 104 % of control | dose: 0.25 mg/kg/injection, schedule: Q04DX003 (ip), vehicle: saline 91 % of control | dose: 0.5 mg/kg/injection, schedule: Q01DX009 (ip), vehicle: saline 100 % of control | dose: 0.5 mg/kg/injection, schedule: Q04DX003 (ip), vehicle: saline 104 % of control | dose: 1.0 mg/kg/injection, schedule: Q01DX009 (ip), vehicle: saline 90 % of control | dose: 1.0 mg/kg/injection, schedule: Q01DX010 (ip), vehicle: saline 95 % of control | dose: 1.0 mg/kg/injection, schedule: Q04DX003 (ip), vehicle: saline 100 % of control | dose: 2.0 mg/kg/injection, schedule: Q04DX003 (ip), vehicle: saline 100 % of control

CN(N=O)P(=O)(Nc1ccccc1)Nc1ccccc1
inactive: dose: 25.0 mg/kg/injection, schedule: Q04DX003 (ip), vehicle: other 100 % of control | [9] 100 % of control | [10] 95 % of control

CCCCCCNC1=CC(=O)CC(C)(C)C1
inactive: [11] 105 % of control | [12] 99 % of control | dose: 200.0 mg/kg/injection, schedule: Q01DX009 (ip), vehicle: saline 107 % of control

O=C(OC1c2ccccc2C2CC21)c1cc([N+](=O)[O-])cc([N+](=O)[O-])c1 (stereo not drawn)
inactive: [5] 100 % of control | [3] 104 % of control | [4] 104 % of control

CCCCCCCCCCCCCCCCCC(=O)NN
inactive: dose: 12.5 mg/kg/injection, schedule: Q04DX003 (ip), vehicle: saline with Tween-80 105 % of control | dose: 25.0 mg/kg/injection, schedule: Q04DX003 (ip), vehicle: saline with Tween-80 98 % of control | [13] 98 % of control

c1csc(C[N+]23CN4CN(CN(C4)C2)C3)c1
inactive: [12] 116 % of control

CC[C@@]1(O)C(=O)OCc2c1cc1n(c2=O)Cc2cc3ccccc3nc2-1
active: dose: 0.8 mg/kg/injection, schedule: Q01DX009 (ip), vehicle: saline with Tween-80 170 % of control | dose: 1.5 mg/kg/injection, schedule: Q01DX009 (ip), vehicle: saline with Tween-80 195 % of control | dose: 2.5 mg/kg/injection, schedule: Q04DX003 (ip), vehicle: saline with Tween-80 161 % of control | dose: 3.0 mg/kg/injection, schedule: Q01DX009 (ip), vehicle: saline with Tween-80 183 % of control | dose: 3.75 mg/kg/injection, schedule: Q04DX003 (ip), vehicle: saline with Tween-80 176 % of control | dose: 4.0 mg/kg/injection, schedule: Q04DX003 (ip), vehicle: saline with Tween-80 200 % of control | dose: 6.0 mg/kg/injection, schedule: Q04DX003 (ip), vehicle: saline with Tween-80 233 % of control | dose: 9.0 mg/kg/injection, schedule: Q04DX003 (ip), vehicle: saline with Tween-80 250 % of control

O=S(=O)(Nc1ccc(O)cc1)c1ccccc1
inactive: [6] 100 % of control | [7] 95 % of control | [8] 104 % of control

C=CC(COC(=O)C(C)(C)OC(C)=O)c1ccc(OC(=O)C(C)C)c(OC)c1 (stereo not drawn)
inactive: dose: 1.56 mg/kg/injection, schedule: Q01DX009 (ip), vehicle: saline 119 % of control | dose: 3.13 mg/kg/injection, schedule: Q01DX009 (ip), vehicle: saline 100 % of control | dose: 6.25 mg/kg/injection, schedule: Q01DX009 (ip), vehicle: saline 103 % of control | [14] 100 % of control

CC1=NN(c2ccccc2)C(=O)C1C(=S)SC1CC(=O)NC1=O (stereo not drawn)
inactive: [5] 117 % of control | [3] 103 % of control | [4] 108 % of control

CCCOP(=O)(OCCC)C(OC(=O)C(C)C)=C(C)C
inactive: [6] 120 % of control | [7] 105 % of control

O=c1c2cc3nc4ccccn4c(=O)c3cc2nc2ccccn12
inactive: [5] 91 % of control | [3] 86 % of control | [4] 91 % of control

CCCCCCCCCCCC[N+]1([O-])CCCC1
inactive: [14] 100 % of control | dose: 25.0 mg/kg/injection, schedule: Q01DX009 (ip), vehicle: saline 93 % of control | [11] 87 % of control

CN(c1ccccc1)c1ccc([N+](=O)[O-])c2no[n+]([O-])c12
inactive: dose: 15.0 mg/kg/injection, schedule: Q01DX009 (ip), vehicle: saline with Tween-80 106 % of control | dose: 30.0 mg/kg/injection, schedule: Q01DX009 (ip), vehicle: saline with Tween-80 118 % of control

O=C(O)c1cc(Br)c(Br)s1
inactive: [13] 91 % of control | [6] 100 % of control | [7] 112 % of control

CCCC1CC[N-]CC1.CCCC1CC[N-]CC1.CCCC1CC[N-]CC1.CCCC1CC[N-]CC1.[Cl][Rh][Cl]
inactive: dose: 0.35 mg/kg/injection, schedule: Q01DX009 (ip), vehicle: saline 122 % of control | dose: 0.53 mg/kg/injection, schedule: Q01DX009 (ip), vehicle: saline 123 % of control | dose: 0.8 mg/kg/injection, schedule: Q01DX009 (ip), vehicle: saline 119 % of control | dose: 3.0 mg/kg/injection, schedule: Q01DX009 (ip), vehicle: Klucel (hydroxypropylcellulose) (HPC) 86 % of control

CC(C)C1(C(=O)NNC(=O)CCCc2ccc(N(CCCl)CCCl)cc2)OC2(O)CCCCCN2C1=O (stereo not drawn)
active: [9] 175 % of control | [10] 220 % of control

O=C(O)CCCOc1cc(Cl)c(Cl)cc1Cl
inactive: dose: 50.0 mg/kg/injection, schedule: Q01DX009 (ip), vehicle: gum acacia 107 % of control | dose: 50.0 mg/kg/injection, schedule: Q04DX003 (ip), vehicle: gum acacia 100 % of control | dose: 100.0 mg/kg/injection, schedule: Q01DX009 (ip), vehicle: gum acacia 107 % of control | dose: 100.0 mg/kg/injection, schedule: Q04DX003 (ip), vehicle: gum acacia 104 % of control | dose: 200.0 mg/kg/injection, schedule: Q01DX009 (ip), vehicle: gum acacia 107 % of control | dose: 200.0 mg/kg/injection, schedule: Q04DX003 (ip), vehicle: gum acacia 122 % of control

CN(C)P(=S)(N(C)C)N1CCC1
inactive: [5] 96 % of control | [3] 90 % of control | [4] 109 % of control

Cc1nc2[nH]c(=O)ccc2c(C)c1N
inactive: dose: 100.0 mg/kg/injection, schedule: Q04DX002 (ip), vehicle: saline with Tween-80 92 % of control

O=C(/C=C/c1ccc2c(c1)OCO2)c1ccc([N+](=O)[O-])cc1
inactive: dose: 6.25 mg/kg/injection, schedule: Q04DX003 (ip), vehicle: Klucel (hydroxypropylcellulose) (HPC) 100 % of control | dose: 12.5 mg/kg/injection, schedule: Q04DX003 (ip), vehicle: Klucel (hydroxypropylcellulose) (HPC) 100 % of control | [1] 100 % of control | [2] 86 % of control | dose: 100.0 mg/kg/injection, schedule: Q01DX001 (ip), vehicle: Klucel (hydroxypropylcellulose) (HPC) 105 % of control | dose: 200.0 mg/kg/injection, schedule: Q01DX001 (ip), vehicle: Klucel (hydroxypropylcellulose) (HPC) 90 % of control | dose: 400.0 mg/kg/injection, schedule: Q01DX001 (ip), vehicle: Klucel (hydroxypropylcellulose) (HPC) 92 % of control
